Test results as given in patent US20130123206A1, “TREATMENT OF METABOLIC SYNDROME AND INSULIN RESISTANCE WITH CITRUS FLAVANONES” (priority 2010, published 2013).
Entries after “also recorded” stand apart in the source; their conditions may differ.

How the values were obtained:
[1] = system: bovine aortic endothelial cells (BAEC); experiment: Measurement of H2O2/ROS production (CM-H2DCF-DA fluorescence); type: cell-based; settings: for production of ROS in BAEC: 10 μM, 10 minutes
Description: Briefly, BAECs were plated on chamber slides and incubated overnight in media free of phenol red, serum, and growth factors. Cells were then washed with Dulbecco's phosphate buffered saline containing calcium and magnesium (DPBS) before each experiment. Cells were loaded with CM-H2DCF-DA (5 μM, 20 minutes, 37° C.) and then washed to remove excess CM-H2DCF-DA. Cells were then treated with H2O2, hesperetin, or naringenin as indicated in the legends to figures followed by washing three times with DPBS. Some groups of cells were pre-treated with N-acetylcysteine (NAC) (10 mM, 2 hours). Cells were then visualized and images were captured as described for measurement of NO production.

[2] = system: bovine aortic endothelial cells (BAEC); experiment: Immunoblotting of phospho-AMPK, phospho-Akt, phospho-eNOS and phospho-Src in BAEC; type: cell-based
Description: Bovine aortic endothelial cells (BAEC) in primary culture (Cell Applications, San Diego, Calif.) were grown in EBM (Endothelial Basal Medium) containing EGM-MV supplements (Endothelial Growth Medium-Micro Vascular; Cambrex, Walkersville, Md.) and used between passages 3 and 5 as previously described (Formoso et al., Mol Endocrinol, 20:1153-63, 2006). BAECs were grown in 60 mm dishes, serum-starved overnight, and then treated with hesperetin (10 μM) for varying durations or for 10 minutes at different concentrations. In some experiments, Wortmannin (100 nM), or Compound C (5 μM) was added to cells 1 hour before treating with hesperetin. Cell lysates were prepared using 120 μl of lysis buffer (100 mM NaCl, 20 mM Hepes, pH 7.9, 1% Triton X-100, 1 mM Na3VO4, 4 mM sodium pyrophosphate, 10 mM EDTA, 1 mM phenylmethylsulfonyl fluoride, 10 mM NaF, and complete protease inhibitor cocktail (Roche Applied Sciences, Indianapolis, Ind.)). After centrifugation of samples at 17,000×g for 5 minutes at 4° C., supernatants were boiled with Laemmli sample buffer for 5 minutes and proteins (50 μg total protein) were resolved by 10% SDS-PAGE, transferred to nitrocellulose membranes, and immunoblotted using antibodies against eNOS (Transduction Laboratories), phospho-eNOS ([…]), Akt, phospho-Akt ([…]), AMPK, phospho-AMPK ([…]), Src ([…]) (Cell Signaling Technology), VCAM-1 (Santa Cruz, Calif.) or β-actin (Sigma) according to standard methods. Immunoblots were quantified by scanning densitometry (GE Healthcare).

[3] = system: U937 monocytes adhering to BAECs; experiment: Monocyte adhesion assay; type: cell-based, bovine; settings: 5 hours
Description: BAECs were cultured in 6-well plates and then treated with TNF-α (10 ng/ml, 5 hours) or hesperetin (10 μM, 5 hours). In some experiments, hesperetin was added 1 hour before treating cells with TNF-α. U937 monocytes were grown in DMEM medium containing 10% FBS in a culture flask. U937 monocytes were labeled for 15 min with 5 μM calcein-AM (Molecular Probes, Inc.). Labeled U937 cells (6×10^5 cells) were then incubated for 30 minutes at 37° C. with confluent BAECs pre-treated with hesperetin and/or TNF-α. Co-cultured cells were washed three times with PBS and then images of monocytes adhering to BAECs were obtained with an Olympus IX81 inverted microscope with attached CCD camera (Retiga Exi, Burnaby, BC, Canada) using appropriate filters. Images were captured using IPLab™ Software (Scanalytics, Inc., Fairfax, Va.).

[4] = system: VCAM-1 expression in BAEC; experiment: TNF-α-stimulated VCAM-1 expression by immunoblotting; type: cell-based, bovine; settings: 5 hours
Description: FIG. 5A is a digital image showing vascular cell adhesion molecule-1 (VCAM-1) expression by immunoblotting. BAECs were serum-starved overnight and then treated without or with TNF-α (10 ng/ml, 5 hours). In some groups, cells were pre-treated with hesperetin (10 μM, 1 hour) prior to treatment with TNF-α. Cell lysates were immunoblotted using antibodies against VCAM-1 or β-actin. Representative immunoblots are shown for experiments that were repeated independently four times. BAECs were grown in 60 mm dishes, serum-starved overnight, and then treated with hesperetin (10 μM) for varying durations or for 10 minutes at different concentrations. In some experiments, Wortmannin (100 nM), or Compound C (5 μM) was added to cells 1 hour before treating with hesperetin. Cell lysates were prepared using 120 μl of lysis buffer (100 mM NaCl, 20 mM Hepes, pH 7.9, 1% Triton X-100, 1 mM Na3VO4, 4 mM sodium pyrophosphate, 10 mM EDTA, 1 mM phenylmethylsulfonyl fluoride, 10 mM NaF, and complete protease inhibitor cocktail (Roche Applied Sciences, Indianapolis, Ind.)). […] Immunoblots were quantified by scanning densitometry (GE Healthcare).

[5] = system: bovine aortic endothelial cells (BAEC); experiment: Evaluation of NO production in fixed cells (DAF-2 DA fluorescence); type: cell-based; settings: for NO production in response to hesperetin after inhibitor pre-treatment: 10 min; for NO production in response to hesperetin after inhibitor pre-treatment / NO production in response to insulin after inhibitor pre-treatment: inhibitor added 30 min before DAF-2 DA loading; for NO production in response to insulin after inhibitor pre-treatment: insulin 100 nM, 5 min
Description: Bovine aortic endothelial cells (BAEC) in primary culture (Cell Applications, San Diego, Calif.) were grown in EBM (Endothelial Basal Medium) containing EGM-MV supplements (Endothelial Growth Medium-Micro Vascular; Cambrex, Walkersville, Md.) and used between passages 3 and 5 as previously described (Formoso et al., Mol Endocrinol, 20:1153-63, 2006). […] Biol. Chem. 282:13736-45, 2007; Formoso et al., Mol. Endocrinol. 20:1153-63, 2006). Briefly, BAECs were grown to 95% confluence in Lab-Tek™ chamber slides (Rochester, N.Y.) and then serum-starved overnight in phenol red-free EBM supplemented with L-arginine (100 μM). BAECs were loaded with DAF-2 DA (3 μM) for 20 minutes at 37° C. […] After loading with DAF-2 DA for 20 minutes, cells were washed with EBM at 37° C. and kept in the dark. Next, BAECs were treated with insulin (100 nM, 5 minutes), lysophosphatidic acid (LPA; 5 μM, 5 minutes), or hesperetin (10 μM, 10 minutes; Sigma). After treatment, cells were fixed in 4% paraformaldehyde (vol/vol) for 5 minutes at 4° C. Fixed cells were visualized using an Olympus IX81 inverted microscope with attached CCD camera (Retiga Exi, Burnaby, BC, Canada) using appropriate filters with a peak excitation wavelength of 480 nm and a peak emission wavelength of 510 nm. Images were captured using IPLab™ Software (Scanalytics, Inc., Fairfax, Va.).

[6] = hesperetin 10 μM, 1 hour before TNF-α 10 ng/ml
[7] = BAEC serum-starved overnight, hesperetin 10 min at varying concentrations or 10 μM for varying durations

O=C1C[C@@H](c2ccc(O)cc2)Oc2cc(O)cc(O)c21 [naringenin]
production of ROS in BAEC [1]: stimulated

CC(=O)N[C@@H](CS)C(=O)O [N-acetylcysteine, reference compound]
production of ROS after NAC pre-treatment ([1]; NAC 10 mM, 2 hours before loading): scavenged
hesperetin and naringenin-stimulated phosphorylation of Src (Tyr418), Akt (Ser473), and eNOS (Ser1179) after NAC pre-treatment ([2]; NAC 10 mM, 2 hours, flavanone 10 μM, 10 min): inhibited

COc1ccc([C@@H]2CC(=O)c3c(O)cc(O)cc3O2)cc1O [hesperetin]
TNF-α-stimulated adhesion of monocytes to endothelial cells after hesperetin pre-treatment [3, 6]: substantially reduced
TNF-α-stimulated expression of VCAM-1 after hesperetin pre-treatment [4, 6]: substantially reduced
production of ROS in BAEC [1]: stimulated
cellular levels of phosphorylated AMPK (Thr172) [2, 7]: Significant concentration-dependent effects; also recorded: acutely increased; also recorded: Significant time-dependent effects
cellular levels of phosphorylated Akt (Ser473) [2, 7]: Significant concentration-dependent effects; also recorded: acutely increased; also recorded: Significant time-dependent effects
phospho-eNOS (Ser1179) [2, 7]: Significant concentration-dependent effects; also recorded: increased; also recorded: Significant time-dependent effects
hesperetin-stimulated NO production in BAEC ([5]; DAF-2 DA, 10 min at varying concentrations or 10 μM for varying durations): concentration- and time-dependent increase
time of peak production of NO ([5]; hesperetin 10 μM, BAEC): 5 to 10 min

TNF-α
adhesion of labeled monocytes vs vehicle-treated control cells ([3]; TNF-α 10 ng/ml): corresponding increase
expression of VCAM-1 vs vehicle-treated control cells ([4]; TNF-α 10 ng/ml): increased

CC(C)(C)n1nc(-c2ccc(Cl)cc2)c2c(N)ncnc21 [PP2]
hesperetin-stimulated phosphorylation of Src, Akt, and eNOS after PP2 pre-treatment ([2]; PP2 1 μM, 1 hour, hesperetin 10 μM, 10 min): inhibited
NO production in response to hesperetin after inhibitor pre-treatment ([5]; hesperetin 10 μM): inhibited
NO production in response to insulin after inhibitor pre-treatment [5]: failed to inhibit

c1cc(-c2cnn3cc(-c4ccc(OCCN5CCCCC5)cc4)cnc23)ccn1 [Compound C]
NO production in response to hesperetin after inhibitor pre-treatment ([5]; hesperetin 10 μM): substantially inhibited

COC(=O)[C@@H](N)CCCNC(=N)N[N+](=O)[O-] [L-NAME, L-N^G-Nitroarginine methyl ester]
NO production in response to hesperetin after inhibitor pre-treatment ([5]; hesperetin 10 μM): blocked
NO production in response to insulin after inhibitor pre-treatment [5]: blocked
